The target in this assay is T1, voltage-dependent T-type calcium channel subunit alpha-1G (Cav3.2) (Homo sapiens, UniProt O95180).
T1 construct: expressed in transfected cells; host or cells: HEK293
The assay can be described thus: FLIPR calcium flux assay, HEK293 cells recombinantly expressing Cav3.2. Type of assay: cell-based. The settings on record: Cav3.2-channel, Fluo-4-AM, 3 min incubation, stimulation with 10 mM CaCl2. Put shortly: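 HEK293 cells stably expressing human Cav3.2 were loaded with Fluo-4-AM. Compounds diluted in TEAC buffer (pH 7.2) were preincubated for 3 min, then Ca2+ entry was triggered by 10 mM final CaCl2. Inhibition curves were fitted sigmoidally to the area under the fluorescence trace.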
(Calcium assays in cells follow changes in intracellular calcium, usually with a dye or a luminescent sensor.)

pIC50: −log10 of the molar value.

Broadly, the pIC50 is −log10 of the IC50, conventionally taken in molar units.

T1 sequence (O95180 whole entry): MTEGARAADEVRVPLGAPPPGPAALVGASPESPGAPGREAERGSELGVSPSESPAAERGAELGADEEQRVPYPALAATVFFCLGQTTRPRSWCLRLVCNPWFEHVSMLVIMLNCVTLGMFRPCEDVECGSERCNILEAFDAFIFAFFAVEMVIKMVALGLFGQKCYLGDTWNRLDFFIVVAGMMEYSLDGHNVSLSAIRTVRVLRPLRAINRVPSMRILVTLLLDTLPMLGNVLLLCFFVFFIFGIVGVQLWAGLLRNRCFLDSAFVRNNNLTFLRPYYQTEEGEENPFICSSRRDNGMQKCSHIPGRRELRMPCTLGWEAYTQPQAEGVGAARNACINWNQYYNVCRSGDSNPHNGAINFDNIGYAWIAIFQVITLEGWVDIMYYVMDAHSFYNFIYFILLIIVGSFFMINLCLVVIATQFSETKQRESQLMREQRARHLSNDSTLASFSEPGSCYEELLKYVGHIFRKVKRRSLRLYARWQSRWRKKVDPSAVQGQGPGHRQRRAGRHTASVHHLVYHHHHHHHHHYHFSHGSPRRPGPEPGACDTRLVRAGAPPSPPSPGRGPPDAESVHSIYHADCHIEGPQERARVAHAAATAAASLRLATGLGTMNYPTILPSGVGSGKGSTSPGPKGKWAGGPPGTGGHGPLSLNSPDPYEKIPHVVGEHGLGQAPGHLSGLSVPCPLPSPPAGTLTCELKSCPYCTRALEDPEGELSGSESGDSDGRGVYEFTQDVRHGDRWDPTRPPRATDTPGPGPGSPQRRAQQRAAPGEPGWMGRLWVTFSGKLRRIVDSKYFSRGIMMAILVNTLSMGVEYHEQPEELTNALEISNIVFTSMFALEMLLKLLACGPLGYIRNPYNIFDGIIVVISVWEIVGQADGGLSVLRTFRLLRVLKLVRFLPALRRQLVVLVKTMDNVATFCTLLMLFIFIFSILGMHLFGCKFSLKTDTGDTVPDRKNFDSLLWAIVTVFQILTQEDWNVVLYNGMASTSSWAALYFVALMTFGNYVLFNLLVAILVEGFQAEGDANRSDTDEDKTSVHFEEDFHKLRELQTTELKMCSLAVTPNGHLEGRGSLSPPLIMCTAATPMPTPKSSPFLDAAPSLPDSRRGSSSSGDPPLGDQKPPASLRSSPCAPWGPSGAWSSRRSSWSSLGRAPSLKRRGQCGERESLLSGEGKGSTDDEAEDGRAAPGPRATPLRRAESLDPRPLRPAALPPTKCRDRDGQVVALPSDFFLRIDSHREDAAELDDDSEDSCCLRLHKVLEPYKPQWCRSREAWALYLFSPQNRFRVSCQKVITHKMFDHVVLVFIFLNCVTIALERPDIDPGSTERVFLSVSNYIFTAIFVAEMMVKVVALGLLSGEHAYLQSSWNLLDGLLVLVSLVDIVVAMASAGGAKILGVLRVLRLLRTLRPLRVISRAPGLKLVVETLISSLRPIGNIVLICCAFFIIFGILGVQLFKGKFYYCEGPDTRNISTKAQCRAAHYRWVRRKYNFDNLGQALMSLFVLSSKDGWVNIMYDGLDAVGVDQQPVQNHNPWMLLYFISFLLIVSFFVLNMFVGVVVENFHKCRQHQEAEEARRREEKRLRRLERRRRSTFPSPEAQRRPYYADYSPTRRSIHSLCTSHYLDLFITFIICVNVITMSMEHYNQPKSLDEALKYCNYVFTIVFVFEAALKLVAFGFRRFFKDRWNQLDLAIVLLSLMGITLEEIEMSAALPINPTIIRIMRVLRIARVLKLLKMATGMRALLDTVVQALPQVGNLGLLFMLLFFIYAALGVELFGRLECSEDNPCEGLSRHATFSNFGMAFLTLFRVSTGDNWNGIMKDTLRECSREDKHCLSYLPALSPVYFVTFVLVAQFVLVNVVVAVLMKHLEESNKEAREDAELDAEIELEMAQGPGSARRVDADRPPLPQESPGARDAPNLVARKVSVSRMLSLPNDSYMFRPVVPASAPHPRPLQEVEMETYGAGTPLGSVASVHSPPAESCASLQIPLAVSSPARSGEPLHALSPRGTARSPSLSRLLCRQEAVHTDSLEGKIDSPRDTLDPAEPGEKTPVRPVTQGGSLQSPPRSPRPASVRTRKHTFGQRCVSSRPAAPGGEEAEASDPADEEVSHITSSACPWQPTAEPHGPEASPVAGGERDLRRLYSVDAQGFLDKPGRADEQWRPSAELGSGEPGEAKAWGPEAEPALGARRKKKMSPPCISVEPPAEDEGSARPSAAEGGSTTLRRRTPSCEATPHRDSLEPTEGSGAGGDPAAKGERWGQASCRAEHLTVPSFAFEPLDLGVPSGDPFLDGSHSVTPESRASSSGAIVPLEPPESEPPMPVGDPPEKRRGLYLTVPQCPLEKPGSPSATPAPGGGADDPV

Consider `COc1ccc(Cn2ccc(NC(=O)Cc3ccc(N4CCCC4)nc3)n2)cc1` [Example 178, N-[1-(4-Methoxy-benzyl)-1H-pyrazol-3-yl]-2-(6-pyrrolidin-1-yl-pyridin-3-yl)-acetamide], for which the pIC50 was 7.00. To `COCCN(C)c1ccc(CC(=O)Nc2ccn(Cc3ccc(C#N)cn3)n2)cn1` [Example 179, N-[1-(5-Cyano-pyridin-2-ylmethyl)-1H-pyrazol-3-yl]-2-{6-[(2-methoxy-ethyl)-methyl-amino]-pyridin-3-yl}-acetamide] belongs 5.60.

For the compound `COCCN(C)c1ccc(CC(=O)Nc2ccn(Cc3ccc(F)c(F)c3)n2)cn1` [Example 180, N-[1-(3,4-Difluoro-benzyl)-1H-pyrazol-3-yl]-2-{6-[(2-methoxy-ethyl)-methyl-amino]-pyridin-3-yl}-acetamide], the pIC50 is 7.48. For the compound `COCCN(C)c1ccc(CC(=O)Nc2ccn(Cc3ccc(C#N)cc3)n2)cn1` [Example 181, N-[1-(4-Cyano-benzyl)-1H-pyrazol-3-yl]-2-{6-[(2-methoxy-ethyl)-methyl-amino]-pyridin-3-yl}-acetamide], the pIC50 is 6.57. The result for `COCCN(C)c1ccc(CC(=O)Nc2ccn(Cc3ccc(F)cc3)n2)cn1` [Example 182, N-[1-(4-Fluoro-benzyl)-1H-pyrazol-3-yl]-2-{6-[(2-methoxy-ethyl)-methyl-amino]-pyridin-3-yl}-acetamide] reads 7.19. For `COCCN(C)c1ccc(CC(=O)Nc2ccn(Cc3ccc(OC)cc3)n2)cn1` [Example 183, N-[1-(4-Methoxy-benzyl)-1H-pyrazol-3-yl]-2-{6-[(2-methoxy-ethyl)-methyl-amino]-pyridin-3-yl}-acetamide], the pIC50 is 6.28. Consider `CN(CC1CC1)c1ccc(CC(=O)Nc2ccn(Cc3ccc(C#N)cn3)n2)cn1` [Example 184, N-[1-(5-Cyano-pyridin-2-ylmethyl)-1H-pyrazol-3-yl]-2-[6-(cyclopropylmethyl-methyl-amino)-pyridin-3-yl]-acetamide], for which the pIC50 was 6.31. The result for `CN(CC1CC1)c1ccc(CC(=O)Nc2ccn(Cc3ccc(F)c(F)c3)n2)cn1` [Example 185, 2-[6-(Cyclopropylmethyl-methyl-amino)-pyridin-3-yl]-N-[1-(3,4-difluoro-benzyl)-1H-pyrazol-3-yl]-acetamide] reads 8.11; that for `CN(CC1CC1)c1ccc(CC(=O)Nc2ccn(Cc3ccc(C#N)cc3)n2)cn1` [Example 186, N-[1-(4-Cyano-benzyl)-1H-pyrazol-3-yl]-2-[6-(cyclopropylmethyl-methyl-amino)-pyridin-3-yl]-acetamide], 7.39; that for `CN(CC1CC1)c1ccc(CC(=O)Nc2ccn(Cc3ccc(F)cc3)n2)cn1` [Example 187, 2-[6-(Cyclopropylmethyl-methyl-amino)-pyridin-3-yl]-N-[1-(4-fluoro-benzyl)-1H-pyrazol-3-yl]-acetamide], 7.82. For `COc1ccc(Cn2ccc(NC(=O)Cc3ccc(N(C)CC4CC4)nc3)n2)cc1` [Example 188, 2-[6-(Cyclopropylmethyl-methyl-amino)-pyridin-3-yl]-N-[1-(4-methoxy-benzyl)-1H-pyrazol-3-yl]-acetamide], the pIC50 was 7.22. The result for `CCN(CC)c1ccc(CC(=O)Nc2ccn(Cc3ccc(C#N)cc3)n2)cn1` [Example 189, N-[1-(4-Cyano-benzyl)-1H-pyrazol-3-yl]-2-(6-diethylamino-pyridin-3-yl)-acetamide] reads 7.06; that for `CCN(CC)c1ccc(CC(=O)Nc2ccn(Cc3ccc(F)cc3)n2)cn1` [Example 190, 2-(6-Diethylamino-pyridin-3-yl)-N-[1-(4-fluoro-benzyl)-1H-pyrazol-3-yl]-acetamide], 7.68. To `CCN(CC)c1ccc(CC(=O)Nc2ccn(Cc3ccc(OC)cc3)n2)cn1` [Example 191, 2-(6-Diethylamino-pyridin-3-yl)-N-[1-(4-methoxy-benzyl)-1H-pyrazol-3-yl]-acetamide] belongs 7.03. The result for `CC(C)c1ccc(CC(=O)Nc2ccn(Cc3ccc(C4CC4)cc3)n2)cc1` [Example 192, N-[1-(4-Cyclopropyl-benzyl)-1H-pyrazol-3-yl]-2-(4-isopropyl-phenyl)-acetamide] reads 6.88. Take `O=C(Cc1ccc(C2CC2)nc1)Nc1ccn(Cc2ccc(Cl)c(F)c2)n1` [Example 193, N-[1-(4-Chloro-3-fluoro-benzyl)-1H-pyrazol-3-yl]-2-(6-cyclopropyl-pyridin-3-yl)-acetamide]: the negative logarithm of the IC50 (pIC50) is 7.11. The result for `O=C(Cc1ccc(C2CC2)nc1)Nc1ccn(Cc2ccc(F)c(Cl)c2)n1` [Example 194, N-[1-(3-Chloro-4-fluoro-benzyl)-1H-pyrazol-3-yl]-2-(6-cyclopropyl-pyridin-3-yl)-acetamide] reads 7.21.

As for `CC(C)c1ccc(CC(=O)Nc2ccn(Cc3ccc(OC4CC4)cc3)n2)cc1` [Example 195, N-[1-(4-Cyclopropoxy-benzyl)-1H-pyrazol-3-yl]-2-(4-isopropyl-phenyl)-acetamide], the pIC50 is 7.33. To `N#Cc1ccc(Cn2ccc(NC(=O)Cc3ccc(OC4CCC4)cc3)n2)nc1` [Example 196, N-[1-(5-Cyano-pyridin-2-ylmethyl)-1H-pyrazol-3-yl]-2-(4-cyclobutoxy-phenyl)-acetamide] belongs 6.75; to `N#Cc1ccc(Cn2ccc(NC(=O)Cc3ccc(OC4CCC4)cc3)n2)cc1` [Example 197, N-[1-(4-Cyano-benzyl)-1H-pyrazol-3-yl]-2-(4-cyclobutoxy-phenyl)-acetamide], 7.27.

For the compound `O=C(Cc1ccc(OC2CCC2)cc1)Nc1ccn(Cc2ccc(F)cc2)n1` [Example 198, 2-(4-Cyclobutoxy-phenyl)-N-[1-(4-fluoro-benzyl)-1H-pyrazol-3-yl]-acetamide], the pIC50 was 7.80. With `COc1ccc(Cn2ccc(NC(=O)Cc3ccc(OC4CCC4)cc3)n2)cc1` [Example 199, 2-(4-Cyclobutoxy-phenyl)-N-[1-(4-methoxy-benzyl)-1H-pyrazol-3-yl]-acetamide], the pIC50 is 7.13. To `O=C(Cc1ccc(OC2CCC2)cc1)Nc1ccn(Cc2ccc(F)cn2)n1` [Example 200, 2-(4-Cyclobutoxy-phenyl)-N-[1-(5-fluoro-pyridin-2-ylmethyl)-1H-pyrazol-3-yl]-acetamide] belongs 7.17.

With `O=C(Cc1ccc(N2CCCC2=O)cc1)Nc1ccn(Cc2ccc(F)cc2)n1` [Example 204, N-[1-(4-Fluoro-benzyl)-1H-pyrazol-3-yl]-2-[4-(2-oxo-pyrrolidin-1-yl)-phenyl]-acetamide], the pIC50 is 7.10.

`O=C(Cc1ccc2nccnc2c1)Nc1ccn(Cc2ccc(F)c(F)c2)n1` [Example 205, N-[1-(3,4-Difluoro-benzyl)-1H-pyrazol-3-yl]-2-quinoxalin-6-yl-acetamide]: the pIC50 was 6.54.

Consider `O=C(Cc1ccc2cccnc2c1)Nc1ccn(Cc2ccc(F)c(F)c2)n1` [Example 206, N-[1-(3,4-Difluoro-benzyl)-1H-pyrazol-3-yl]-2-quinolin-7-yl-acetamide], for which the pIC50 was 7.30. To `O=C(Cc1ccc2c(c1)OCC(=O)N2)Nc1ccn(Cc2ccc(F)c(F)c2)n1` [Example 208, N-[1-(3,4-Difluoro-benzyl)-1H-pyrazol-3-yl]-2-(3-oxo-3,4-dihydro-2H-benzo[1,4]oxazin-7-yl)-acetamide] belongs 7.06; to `CN1C(=O)COc2cc(CC(=O)Nc3ccn(Cc4ccc(F)c(F)c4)n3)ccc21` [Example 209, N-[1-(3,4-Difluoro-benzyl)-1H-pyrazol-3-yl]-2-(4-methyl-3-oxo-3,4-dihydro-2H-benzo[1,4]oxazin-7-yl)-acetamide], 7.28; to `CC(C)c1ccc(CC(=O)Nc2ccn(Cc3ccc(F)c(C#N)n3)n2)cc1` [Example 210, N-[1-(6-Cyano-5-fluoro-pyridin-2-ylmethyl)-1H-pyrazol-3-yl]-2-(4-isopropyl-phenyl)-acetamide], 8.10.

Consider `CC(C)c1ccc(CC(=O)Nc2ccn(Cc3ccc(F)c(Cl)n3)n2)cc1` [Example 211, N-[1-(6-Chloro-5-fluoro-pyridin-2-ylmethyl)-1H-pyrazol-3-yl]-2-(4-isopropyl-phenyl)-acetamide], for which the pIC50 is 8.51. Regarding `Cn1ccc2cc(CC(=O)Nc3ccn(Cc4ccc(F)cc4)n3)cnc21` [Example 213, N-[1-(4-Fluoro-benzyl)-1H-pyrazol-3-yl]-2-(1-methyl-1H-pyrrolo[2,3-b]pyridin-5-yl)-acetamide], the pIC50 is 7.51. The result for `Cn1ccc2cc(CC(=O)Nc3ccn(Cc4ccc(C#N)cc4)n3)cnc21` [Example 214, N-[1-(4-Cyano-benzyl)-1H-pyrazol-3-yl]-2-(1-methyl-1H-pyrrolo[2,3-b]pyridin-5-yl)-acetamide] reads 6.79; that for `COc1ccc(Cn2ccc(NC(=O)Cc3cnc4c(ccn4C)c3)n2)cc1` [Example 215, N-[1-(4-Methoxy-benzyl)-1H-pyrazol-3-yl]-2-(1-methyl-1H-pyrrolo[2,3-b]pyridin-5-yl)-acetamide], 6.22. As to `N#Cc1ccc(Cn2ccc(NC(=O)Cc3ccc(C4CC4)nc3)n2)cc1F` [Example 216, N-[1-(4-Cyano-3-fluoro-benzyl)-1H-pyrazol-3-yl]-2-(6-cyclopropyl-pyridin-3-yl)-acetamide], the pIC50 is 6.57.

With `O=C(Cc1ccc2[nH]c(=O)oc2c1)Nc1ccn(Cc2ccc(F)c(F)c2)n1` [Example 218, N-[1-(3,4-Difluoro-benzyl)-1H-pyrazol-3-yl]-2-(2-oxo-2,3-dihydro-benzooxazol-6-yl)-acetamide], the pIC50 is 7.10. Consider `Cn1ccc2cc(CC(=O)Nc3ccn(Cc4ccc(F)c(F)c4)n3)ccc21` [Example 220, N-[1-(3,4-Difluoro-benzyl)-1H-pyrazol-3-yl]-2-(1-methyl-1H-indol-5-yl)-acetamide], for which the pIC50 was 8.51. On to `Cn1ccc2ccc(CC(=O)Nc3ccn(Cc4ccc(F)c(F)c4)n3)cc21` [Example 221, N-[1-(3,4-Difluoro-benzyl)-1H-pyrazol-3-yl]-2-(1-methyl-1H-indol-6-yl)-acetamide], for which the negative-log IC50 (pIC50) was 8.30.

The values above are taken from patent US9932314B2, “Pyrazole compounds and their use as T-type calcium channel blockers” (IDORSIA PHARMACEUTICALS LTD, priority 2015, dated 2018).
